Results taken from ChEMBL document CHEMBL1955818, “Might the observed α(2A)-adrenoreceptor agonism or antagonism of allyphenyline analogues be ascribed to different molecular conformations?” (Bioorg Med Chem, 2012).

Columns and labels:
[1] = biological target: T1, Alpha-2C adrenergic receptor (Homo sapiens) (UniProt P18825); experiment: Intrinsic activity at human adrenoceptor aplha 2C expressed in CHO cells by cytosensor microphysiometric analysis relative to (-)-noradrenaline; type: cell-based
T1 sequence (whole entry): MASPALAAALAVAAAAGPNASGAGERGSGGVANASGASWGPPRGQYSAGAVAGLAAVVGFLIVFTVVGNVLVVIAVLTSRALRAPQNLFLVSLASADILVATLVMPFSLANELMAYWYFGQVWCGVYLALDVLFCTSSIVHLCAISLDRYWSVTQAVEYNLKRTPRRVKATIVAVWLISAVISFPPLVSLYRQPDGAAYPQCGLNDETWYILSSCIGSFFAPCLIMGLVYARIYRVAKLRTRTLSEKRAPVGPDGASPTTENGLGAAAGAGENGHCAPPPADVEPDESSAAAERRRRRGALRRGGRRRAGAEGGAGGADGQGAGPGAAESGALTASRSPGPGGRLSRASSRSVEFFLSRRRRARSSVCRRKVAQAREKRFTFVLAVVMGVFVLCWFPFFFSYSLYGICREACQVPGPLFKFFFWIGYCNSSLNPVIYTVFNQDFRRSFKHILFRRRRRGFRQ

[2] = biological target: T2, Alpha-2C adrenergic receptor (Homo sapiens, UniProt P18825); experiment: Displacement of [3H]RS-79948-197 from human adrenoceptor aplha 2C expressed in CHO cells; type: cell-based
T2 sequence (P18825 whole entry): T1 sequence (whole entry)

[3] = biological target: T3, Alpha-2B adrenergic receptor (Homo sapiens, UniProt P18089); experiment: Agonist activity at human adrenoceptor aplha 2B expressed in CHO cells assessed as rate of extracellular acidification by cytosensor microphysiometric analysis; type: functional, cell-based
T3 sequence (P18089 whole entry): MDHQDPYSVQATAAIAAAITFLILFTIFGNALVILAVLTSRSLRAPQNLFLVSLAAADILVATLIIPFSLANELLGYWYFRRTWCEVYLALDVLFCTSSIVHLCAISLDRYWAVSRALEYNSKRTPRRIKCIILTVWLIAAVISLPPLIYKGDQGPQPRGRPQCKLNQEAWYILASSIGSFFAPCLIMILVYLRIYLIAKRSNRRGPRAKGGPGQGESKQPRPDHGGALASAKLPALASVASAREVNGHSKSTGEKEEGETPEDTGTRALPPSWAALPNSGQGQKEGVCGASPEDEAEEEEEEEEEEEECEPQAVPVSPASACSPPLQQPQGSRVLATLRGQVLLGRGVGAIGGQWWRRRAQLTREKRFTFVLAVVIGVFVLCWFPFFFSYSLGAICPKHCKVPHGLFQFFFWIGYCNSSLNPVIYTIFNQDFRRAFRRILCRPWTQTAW

[4] = biological target: T4, Alpha-2A adrenergic receptor (Homo sapiens) (UniProt P08913); settings: CHO
T4 sequence (whole entry): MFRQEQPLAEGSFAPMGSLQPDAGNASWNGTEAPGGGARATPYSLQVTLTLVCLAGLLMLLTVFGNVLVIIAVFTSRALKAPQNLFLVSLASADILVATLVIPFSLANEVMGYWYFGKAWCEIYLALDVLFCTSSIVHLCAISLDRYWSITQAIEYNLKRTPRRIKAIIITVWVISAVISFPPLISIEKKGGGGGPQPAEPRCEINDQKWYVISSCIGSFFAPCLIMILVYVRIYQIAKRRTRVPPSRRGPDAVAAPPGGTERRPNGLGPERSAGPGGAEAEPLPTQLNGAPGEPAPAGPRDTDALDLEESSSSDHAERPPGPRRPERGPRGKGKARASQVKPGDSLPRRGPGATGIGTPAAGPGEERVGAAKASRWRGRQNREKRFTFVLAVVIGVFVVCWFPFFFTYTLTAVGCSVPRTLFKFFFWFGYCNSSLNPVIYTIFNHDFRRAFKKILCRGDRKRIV
Description: Antagonist activity at human adrenoceptor aplha 2A expressed in CHO cells assessed as inhibition of clonidine-induced response by cytosensor microphysiometric analysis

[5] = biological target: T5, Alpha-2A adrenergic receptor (Homo sapiens, UniProt P08913); experiment: Displacement of [3H]RS-79948-197 from human adrenoceptor aplha 2A expressed in CHO cells; type: cell-based
T5 sequence (P08913 whole entry): T4 sequence (whole entry)

[6] = biological target: T6, Alpha-2B adrenergic receptor (Homo sapiens) (UniProt P18089); experiment: Intrinsic activity at human adrenoceptor aplha 2B expressed in CHO cells by cytosensor microphysiometric analysis relative to (-)-noradrenaline; type: cell-based
T6 sequence (whole entry): T3 sequence (P18089 whole entry)

[7] = biological target: T3, Alpha-2B adrenergic receptor; experiment: Displacement of [3H]RS-79948-197 from human adrenoceptor aplha 2B expressed in CHO cells; type: cell-based
[8] = biological target: T2, Alpha-2C adrenergic receptor; experiment: Agonist activity at human adrenoceptor aplha 2C expressed in CHO cells assessed as rate of extracellular acidification by cytosensor microphysiometric analysis; type: functional, cell-based
[9] = biological target: T5, Alpha-2A adrenergic receptor; experiment: Agonist activity at human adrenoceptor aplha 2A expressed in CHO cells assessed as rate of extracellular acidification by cytosensor microphysiometric analysis; type: functional, cell-based

Compound C=C(C)c1ccccc1OC(C)C1=NCCN1 (centres undefined) has an Intrinsic activity [1] of 0.71, a Ki [2] of 603 nM and an EC50 [3] of 1580 nM. For the same compound, the pKb [4] was 7, the Ki [5] was 72.4 nM and the Intrinsic activity [6] was 0.4. It also gave a Ki [7] of 871 nM and an EC50 [8] of 115 nM.
CCOc1ccccc1OC(C)C1=NCCN1 (centres undefined) was tested, and the Intrinsic activity [1] was 0.45, the Ki [2] was 759 nM and the EC50 [3] was 3160 nM. The pKb [4] was 6.5, the Ki [5] was 97.7 nM and the Intrinsic activity [6] was 0.5. For the same compound, the Ki [7] was 1320 nM and the EC50 [8] was 10000 nM.
For CC(Oc1ccccc1C(C)C)C1=NCCN1 (centres undefined), the Intrinsic activity [1] was 0.73, the Ki [2] was 457 nM and the EC50 [3] was 251 nM. It also gave a pKb [4] of 6.82, a Ki [5] of 72.4 nM and an Intrinsic activity [6] of 0.54. The Ki [7] was 933 nM and the EC50 [8] was 398 nM.
CC(C)Oc1ccccc1OC(C)C1=NCCN1 (centres undefined) was tested, and the Intrinsic activity [1] was 0.7, the Ki [2] was 398 nM and the EC50 [3] was 1740 nM. The pKb [4] was 6.82, the Ki [5] was 83.2 nM and the Intrinsic activity [6] was 0.5. It also gave a Ki [7] of 1580 nM and an EC50 [8] of 100 nM.
For CC(=O)c1ccccc1OC(C)C1=NCCN1 (centres undefined), the Intrinsic activity [1] was 0.65, the Ki [2] was 7410 nM and the EC50 [3] was 295 nM. It also gave a Ki [5] of 1020 nM, an Intrinsic activity [6] of 0.6 and a Ki [7] of 6170 nM. For the same compound, the EC50 [8] was 200 nM and the EC50 [9] was 63.1 nM.
CC(Oc1ccccc1Br)C1=NCCN1 (centres undefined) showed an Intrinsic activity [1] of 0.87, a Ki [2] of 282 nM and an EC50 [3] of 316 nM. The pKb [4] was 7.04, the Ki [5] was 22.9 nM and the Intrinsic activity [6] was 0.4. The Ki [7] was 355 nM and the EC50 [8] was 10 nM.
CC(Oc1ccccc1C(F)(F)F)C1=NCCN1 (centres undefined) gave an Intrinsic activity [1] of 0.72, a Ki [2] of 977 nM and an EC50 [3] of 240 nM. The pKb [4] was 6.42, the Ki [5] was 182 nM and the Intrinsic activity [6] was 0.4. It also gave a Ki [7] of 1620 nM and an EC50 [8] of 794 nM.
Compound Cc1cccc(C)c1OC(C)C1=NCCN1 (centres undefined) has an Intrinsic activity [1] of 0.82, a Ki [2] of 251 nM and an EC50 [3] of 1480 nM. For the same compound, the Ki [5] was 11.7 nM, the Intrinsic activity [6] was 0.8 and the Ki [7] was 182 nM. It also gave an EC50 [8] of 27.5 nM and an EC50 [9] of 18.6 nM.
Work on CC(Oc1c(Cl)cccc1Cl)C1=NCCN1 (centres undefined) [LOFEXIDINE] yielded an Intrinsic activity [1] of 0.8, a Ki [2] of 69.2 nM and an EC50 [3] of 126 nM. It also gave an Intrinsic activity [6] of 0.8, a Ki [7] of 67.6 nM and an EC50 [8] of 1.38 nM.
CC(Oc1ccccc1Cl)C1=NCCN1 (centres undefined) showed an Intrinsic activity [1] of 0.83, a Ki [2] of 490 nM and an EC50 [3] of 162 nM. It also gave a pKb [4] of 7.2, a Ki [5] of 28.8 nM and an Intrinsic activity [6] of 0.44. For the same compound, the Ki [7] was 331 nM and the EC50 [8] was 166 nM.
In the case of CC(Oc1ccccc1OC1CC1)C1=NCCN1 (centres undefined), the Intrinsic activity [1] is reported as 0.7, the Ki [2] is reported as 676 nM and the EC50 [3] is reported as 12900 nM. The pKb [4] was 6.9, the Ki [5] was 83.2 nM and the Intrinsic activity [6] was 0.6. For the same compound, the Ki [7] was 1050 nM and the EC50 [8] was 47.9 nM.
With CCc1cccc(CC)c1OC(C)C1=NCCN1 (centres undefined) the Intrinsic activity [1] was 0.65, the Ki [2] was 275 nM and the EC50 [3] was 1000 nM. For the same compound, the Ki [5] was 31.6 nM, the Intrinsic activity [6] was 0.8 and the Ki [7] was 269 nM. It also gave an EC50 [8] of 27.5 nM and an EC50 [9] of 11.7 nM.
CC(Oc1ccccc1CC1CC1)C1=NCCN1 (centres undefined) [CYCLOMETHYLINE] showed an Intrinsic activity [1] of 0.8, a Ki [2] of 275 nM and an EC50 [3] of 3310 nM. For the same compound, the Ki [5] was 36.3 nM, the Intrinsic activity [6] was 0.7 and the Ki [7] was 407 nM. The EC50 [8] was 2 nM.
In the case of CC(Oc1ccccc1S(C)(=O)=O)C1=NCCN1 (centres undefined), the Intrinsic activity [1] is reported as 0.6, the Ki [2] is reported as 3800 nM and the EC50 [3] is reported as 10000 nM. It also gave a Ki [5] of 3160 nM, an Intrinsic activity [6] of 0.45 and a Ki [7] of 51300 nM. For the same compound, the EC50 [8] was 316 nM and the EC50 [9] was 562 nM.
Compound C=COc1ccccc1OC(C)C1=NCCN1 (centres undefined) has an Intrinsic activity [1] of 0.48, an EC50 [3] of 3160 nM and a pKb [4] of 5. For the same compound, the Intrinsic activity [6] was 0.45 and the EC50 [8] was 631 nM.
Compound CC(Oc1c(-c2ccccc2)cccc1-c1ccccc1)C1=NCCN1 (centres undefined) has an Intrinsic activity [1] of 0.7, a Ki [2] of 631 nM and an EC50 [3] of 200 nM. The pKb [4] was 8, the Ki [5] was 490 nM and the Intrinsic activity [6] was 0.6. For the same compound, the Ki [7] was 4570 nM and the EC50 [8] was 79.4 nM.
CCc1ccccc1OC(C)C1=NCCN1 (centres undefined) showed an Intrinsic activity [1] of 0.6, a Ki [2] of 288 nM and an EC50 [3] of 10000 nM. It also gave a pKb [4] of 6, a Ki [5] of 24 nM and an Intrinsic activity [6] of 0.5. It also gave a Ki [7] of 282 nM and an EC50 [8] of 100 nM.
Compound C=CCc1cccc(CC=C)c1OC(C)C1=NCCN1 (centres undefined) has an Intrinsic activity [1] of 0.9, a Ki [2] of 129 nM and an EC50 [3] of 501 nM. It also gave a pKb [4] of 8.56, a Ki [5] of 16.6 nM and an Intrinsic activity [6] of 0.65. It also gave a Ki [7] of 275 nM and an EC50 [8] of 56.2 nM.
COc1ccccc1OC(C)C1=NCCN1 (centres undefined) gave an Intrinsic activity [1] of 0.6, a Ki [2] of 832 nM and an EC50 [3] of 100000 nM. For the same compound, the pKb [4] was 6.6, the Ki [5] was 57.5 nM and the Intrinsic activity [6] was 0.5. It also gave a Ki [7] of 871 nM and an EC50 [8] of 9770 nM.
Work on CC(Oc1ccccc1C=O)C1=NCCN1 (centres undefined) yielded an Intrinsic activity [1] of 0.6, a Ki [2] of 8710 nM and an EC50 [3] of 316 nM. For the same compound, the Ki [5] was 1050 nM, the Intrinsic activity [6] was 0.5 and the Ki [7] was 2090 nM. It also gave an EC50 [8] of 100 nM and an EC50 [9] of 31.6 nM.
